Results as given in patent publication US9708332B2, “Respiratory syncytial virus inhibitors” (MEDIVIR AB, priority 2013, dated 2017).

tested on: RSV (Long); assay: RSV cytopathic effect (CPE)-based viral replication assay in HEp-2 cells; conditions: human respiratory syncytial virus, 72 h; HEp-2 cells infected with RSV Long at MOI 0.015, 3 days, cell viability by CellTiter-Glo; read-out: Ec50 (nM) Example A
Experimental: Compounds of the invention are initially tested in a cytopathic effect (CPE)-based viral replication assay using immortalized cells and a laboratory strain of RSV (Long). This assay evaluates the ability of a compound to inhibit viral replication. Assay plates are prepared by seeding 2,500 HEp-2 cells (ATCC) per well of a 384-well black clear-bottom plate (Greiner Bio-One) in 20 μL of assay media (defined as DMEM supplemented with 2% heat-inactivated fetal bovine serum and 1% Penicillin/Streptomycin). Assay plates are incubated overnight at 37° C. in an incubator containing 5% CO2. The following day, a 10-point serial dilution of test compound is prepared in DMSO. Compounds are subsequently diluted with assay media and 20 μL of diluted compound (containing 1.5% DMSO) is transferred to an assay plate for evaluation of antiviral activity. For the CPE assay, cells are infected at a MOI of 0.015 using 20 μL of RSV Long (ATCC) diluted in assay media. The DMSO concentration is constant throughout the assay plate, including the negative and positive controls. The assay plate is incubated for 3 days at 37° C. in an incubator containing 5% CO2. Cell viability is evaluated with the addition of 10 μL of CellTiter-Glo (ProMega). Luminescence is measured using an EnVision plate reader (Perkin Elmer). EC50 values are calculated using the raw data from the CPE assays, respectively.

Compound	EC50 [nM]
O=c1n(Cc2nc(OCC3CCOC3)c3ccccc3n2)c2ncccc2n1C1CC1 (stereo not shown) [compound 1020]	450
O=C1CCCN1CCOc1nc(Cn2c(=O)n(C3CC3)c3ccncc32)nc2cc(Br)ccc12 [compound 1081]	280
Cc1cc2n(Cc3nc(OCC4CCOC4)c4ccccc4n3)c(=O)c3ccccc3n2n1 (stereo not shown) [compound 1070]	16
O=c1n(Cc2nc(OCC3CCOC3)c3cccc(Cl)c3n2)c2cnccc2n1C1CC1 (stereo not shown) [compound 1090]	710
O=c1n(Cc2nc(OC3CCOC3)c3ccc(Cl)cc3n2)c2c[n+]([O-])ccc2n1C1CC1 (stereo not shown) [Compound 1104]	130
O=c1n(Cc2nc(OC3COC3)c3ccc(Cl)cc3n2)c2cnccc2n1C1CC1 [compound 1068]	63
O=c1n(Cc2nc(OCC3CCOC3)c3ccc(Cl)cc3n2)c2cnccc2n1C1CCOCC1 (stereo not shown) [compound 1095]	380
O=c1n(Cc2nc(OCC3CCOC3)c3cc(Cl)ccc3n2)c2cnccc2n1C1CC1 (stereo not shown) [compound 1054]	600
Cc1cc2n(Cc3nc(N(C)Cc4cnn(C)c4)c4ccccc4n3)c(=O)c3ccccc3n2n1 [compound 1027]	10
N#Cc1ccc2nc(Cn3c(=O)n(C4CC4)c4ccncc43)nc(OCC3CCOC3)c2c1 (stereo not shown) [Compound 1036]	140
CN(Cc1cnn(C)c1)c1nc(Cn2c(=O)n(C3CC3)c3ccccc32)nc2ccccc12 [compound 1005]	970
O=c1n(Cc2nc(OCC3CCOC3)c3c(Cl)cccc3n2)c2cnccc2n1C1CC1 (stereo not shown) [compound 1085]	280
Cc1cc2n(Cc3nc(OCC4CCOC4)c4ccc(Br)cc4n3)c(=O)c3ccccc3n2n1 (stereo not shown) [compound 1047]	1700
O=c1n(Cc2nc(OCCCO)c3ccccc3n2)c2cnccc2n1C1CC1 [Compound 1002]	260
O=c1n(Cc2nc(OCC3CCOC3)c3ccc(Cl)cc3n2)c2cnccc2n1C1CCS(=O)(=O)C1 (stereo not shown) [compound 1096]	300
O=c1n(Cc2nc(OC3CCOC3)c3ccc(Cl)cc3n2)c2cnccc2n1C1CC1 (stereo not shown) [compound 1061]	29
Cc1ccc2c(OCC3CCOC3)nc(Cn3c(=O)n(C4CC4)c4ccncc43)nc2c1 (stereo not shown) [Compound 1034]	28
Cn1cc(-c2ccc3c(OCC4CCOC4)nc(Cn4c(=O)n(C5CC5)c5ccncc54)nc3c2)cn1 (stereo not shown) [Compound 1043]	6400
CS(=O)(=O)CCCOc1nc(Cn2c(=O)n(C3CC3)c3ccncc32)nc2cc(Cl)ccc12 [Compound 1065]	43
O=c1n(Cc2nc(CCCCO)c3ccccc3n2)c2ccccc2n1C1CC1 [Compound 1016]	1100
Cc1ncc2n(Cc3nc(OC4CCOC4)c4ccccc4n3)c(=O)c3ccccc3n12 (stereo not shown) [compound 1097]	93
Cc1cc2n(Cc3nc(OCC4CCOC4)c4cc(C#N)ccc4n3)c(=O)c3ccccc3n2n1 (stereo not shown) [Compound 1074]	2.8
O=c1n(Cc2nc(OCCCO)c3ccccc3n2)c2ccccc2n1C1CC1 [Compound 1069]	1200

The next lines start with the values.

EC50 [nM]	Compound
490	O=c1n(Cc2nc(OCC3CCOC3)c3ccccc3n2)c2cccnc2n1C1CC1 (stereo not shown) [compound 1222]
470	CN(Cc1cnn(C)c1)c1nc(Cn2c(=O)c3ccccc3n3cncc23)nc2ccccc12 [compound 1183]
170	O=c1n(Cc2nc(OC3CCOC3)c3ccccc3n2)c2ncccc2n1C1CC1 (stereo not shown) [compound 1221]
590	Cc1cc(CN(C)c2nc(Cn3c(=O)n(C4CC4)c4ccncc43)nc3ccccc23)on1 [compound 1163]
1600	N#Cc1cc2ccccc2n(Cc2nc(OC3CCOC3)c3ccccc3n2)c1=O (stereo not shown) [compound 1108]
110	O=c1n(Cc2nc(OC3CCOC3)c3ccccc3n2)c2cnccc2n1C1CC1 (stereo not shown) [compound 1206]
400	CN(Cc1cnn(C)c1)c1nc(Cn2c(=O)c3ccccc3n3ncc(C#N)c23)nc2ccccc12 [compound 1179]
29	O=c1c2ccccc2n2nncc2n1Cc1nc(OC2CCOC2)c2ccccc2n1 (stereo not shown) [compound 1200]
26	Cc1cc2n(Cc3nc(N(C)CC4CCOC4)c4ccccc4n3)c(=O)c3ccccc3n2n1 (stereo not shown) [compound 1140]
200	O=c1n(Cc2nc(OC3CCOC3)c3ccc(Cl)cc3n2)c2ncccc2n1C1CC1 (stereo not shown) [compound 1219]
280	Cc1cc(CN(C)c2nc(Cn3c(=O)c4ccccc4c4ccccc43)nc3ccccc23)on1 [compound 1168]
1400	Cc1cc2n(Cc3nc(NC(C)c4cnn(C)c4)c4ccccc4n3)c(=O)c3ccccc3n2n1 (stereo not shown) [compound 1180]
25	Cc1ncn2c3ccccc3c(=O)n(Cc3nc(OC4CCOC4)c4ccccc4n3)c12 (stereo not shown) [compound 1100]
1000	Cc1cc(CN(C)c2nc(CN3C(=O)N(C4CC4)Cc4ccccc43)nc3ccccc23)on1 [compound 1164]
380	O=c1n(Cc2nc(OC3CCOC3)c3ccc(Cl)cc3n2)c2cccnc2n1C1CC1 (stereo not shown) [compound 1218]
31	COc1cccc2c(=O)n(Cc3nc(N(C)Cc4cnn(C)c4)c4ccccc4n3)c3cc(C)nn3c12 [compound 1215]
21	O=c1c2ccccc2n2nccc2n1Cc1nc(OC2CCOC2)c2ccccc2n1 (stereo not shown) [compound 1198]
8.8	CCc1cc2n(Cc3nc(OC4CCOC4)c4ccccc4n3)c(=O)c3ccccc3n2n1 (stereo not shown) [compound 1199]
79	Cc1c(C#N)c(=O)n(Cc2nc(OC3CCOC3)c3ccccc3n2)c2ccccc12 (stereo not shown) [compound 1204]
7700	CN(CC1CCOC1)c1nc(Cn2ccc3nccn3c2=O)nc2ccccc12 (stereo not shown) [compound 1119]
15	Cc1cc2n(Cc3nc(N(C)Cc4cnn(C)c4)c4ccccc4n3)c(=O)c3ccncc3n2n1 [compound 1212]
6.6	Cc1cc2n(Cc3nc(OC4CCOC4)c4ccccc4n3)c(=O)c3ccccc3n2n1 (stereo not shown) [compound 1205]
480	Cn1c(=O)n(Cc2nc(OCC3CCOC3)c3ccccc3n2)c2ccccc21 (stereo not shown) [compound 1142]
